Source: ChEMBL document CHEMBL1148812, “4-[omega-[4-arylpiperazin-1-yl]alkoxy]phenyl)imidazo[1,2-a]pyridine derivatives: fluorescent high-affinity dopamine D3 receptor ligands as potential probes for receptor visualization” (J Med Chem, 2007)
pKi: −log10 of the molar value.

Legend:
D(3) dopamine receptor = D(3) dopamine receptor (Homo sapiens, UniProt P35462)
Description: Displacement of [3H]spiroperidol from human cloned dopamine D3 receptor

D(2) dopamine receptor [1] = biological target: T1, D(2) dopamine receptor (Homo sapiens, UniProt P14416)
D(2) dopamine receptor [2] = biological target: T1, D(2) dopamine receptor; test: Displacement of [3H]spiroperidol from human cloned dopamine D2L receptor at 10 uM

Chain of D(3) dopamine receptor (P35462 whole entry): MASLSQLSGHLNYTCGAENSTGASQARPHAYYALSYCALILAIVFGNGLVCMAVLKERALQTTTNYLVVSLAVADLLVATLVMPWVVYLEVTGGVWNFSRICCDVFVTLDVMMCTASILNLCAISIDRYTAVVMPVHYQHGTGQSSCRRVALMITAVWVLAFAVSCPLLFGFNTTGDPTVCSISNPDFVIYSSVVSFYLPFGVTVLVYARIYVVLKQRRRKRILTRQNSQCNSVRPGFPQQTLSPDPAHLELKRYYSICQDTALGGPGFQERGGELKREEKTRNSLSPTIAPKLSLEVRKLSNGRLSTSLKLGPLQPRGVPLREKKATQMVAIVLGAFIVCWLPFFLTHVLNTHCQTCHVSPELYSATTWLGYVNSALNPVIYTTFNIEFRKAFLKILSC
T1 sequence (P14416 whole entry): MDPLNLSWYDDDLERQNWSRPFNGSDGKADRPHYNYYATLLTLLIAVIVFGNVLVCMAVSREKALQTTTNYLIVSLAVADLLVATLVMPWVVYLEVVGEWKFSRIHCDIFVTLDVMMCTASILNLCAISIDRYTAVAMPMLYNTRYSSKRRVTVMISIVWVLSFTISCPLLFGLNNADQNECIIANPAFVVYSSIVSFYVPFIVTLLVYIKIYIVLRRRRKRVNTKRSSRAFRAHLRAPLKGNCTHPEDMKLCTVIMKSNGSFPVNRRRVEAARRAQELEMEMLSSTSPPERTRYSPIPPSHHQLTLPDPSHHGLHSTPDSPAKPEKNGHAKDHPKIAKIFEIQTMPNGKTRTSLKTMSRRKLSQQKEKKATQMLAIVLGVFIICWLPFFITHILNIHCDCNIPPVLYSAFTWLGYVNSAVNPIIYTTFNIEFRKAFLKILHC

Row | SMILES | pKi (D(3) dopamine receptor) | pKi (D(2) dopamine receptor [1]) | inhibition (D(2) dopamine receptor [2]) [%]
1 | COc1ccccc1N1CCN(CCCCOc2ccc(-c3cn4ccccc4n3)cc2)CC1 | 9.14 | 6.75 | –
2 | Cc1ccn2cc(-c3ccc(OCCCN4CCN(c5cccc(Cl)c5Cl)CC4)cc3)nc2c1 | 8.10 | 7.08 | –
3 | COc1ccccc1N1CCN(CCCCOc2ccc(-c3cn4cc(C)ccc4n3)cc2)CC1 | 6.84 | 7.33 | –
4 | Cc1ccc2nc(-c3ccc(OCCCN4CCN(c5cccc(Cl)c5Cl)CC4)cc3)cn2c1 | 7.54 | – | 31
5 | COc1ccccc1N1CCN(CCCOc2ccc(-c3cn4ccccc4n3)cc2)CC1 | 8.80 | 7.31 | –
6 | Clc1cccc(N2CCN(CCCOc3ccc(-c4cn5ccccc5n4)cc3)CC2)c1Cl | 6.81 | 7.36 | –
7 | COc1ccccc1N1CCN(CCCCOc2ccc(-c3cn4ccc(C)cc4n3)cc2)CC1 | 7.40 | 7.28 | –
8 | Cc1ccc2nc(-c3ccc(OCCCCN4CCN(c5cccc(Cl)c5Cl)CC4)cc3)cn2c1 | 8.10 | 6.83 | –
9 | Cc1cccn2cc(-c3ccc(OCCCCN4CCN(c5cccc(Cl)c5Cl)CC4)cc3)nc12 | 7.26 | 6.25 | –

The remaining lines, values ahead:

Row | pKi (D(3) dopamine receptor) | pKi (D(2) dopamine receptor [1]) | inhibition (D(2) dopamine receptor [2]) [%] | SMILES
10 | 6.75 | 7.11 | – | COc1ccccc1N1CCN(CCCOc2ccc(-c3cn4cc(C)ccc4n3)cc2)CC1
11 | 7.42 | 7.17 | – | Clc1cccc(N2CCN(CCCCOc3ccc(-c4cn5ccccc5n4)cc3)CC2)c1Cl
12 | 7.30 | 7.31 | – | COc1ccccc1N1CCN(CCCOc2ccc(-c3cn4cccc(C)c4n3)cc2)CC1
13 | 7.22 | 6.95 | – | Cc1ccn2cc(-c3ccc(OCCCCN4CCN(c5cccc(Cl)c5Cl)CC4)cc3)nc2c1
14 | 6.65 | 6.90 | – | Cc1cccn2cc(-c3ccc(OCCCN4CCN(c5cccc(Cl)c5Cl)CC4)cc3)nc12
15 | 7.15 | 7.11 | – | COc1ccccc1N1CCN(CCCOc2ccc(-c3cn4ccc(C)cc4n3)cc2)CC1
16 | 6.41 | 6.80 | – | COc1ccccc1N1CCN(CCCCOc2ccc(-c3cn4cccc(C)c4n3)cc2)CC1
